Reference: ChEMBL document CHEMBL1150486, “Dihydro-imidazolone derivatives as angiotensin II receptor antagonists: chiral effect on the activity” (Bioorg Med Chem Lett, 1994)

How the values were obtained:
[1] = molecular target: T1, Type-1 angiotensin II receptor B (Rattus norvegicus, UniProt P29089); test: In vitro binding affinity at Angiotensin II receptor, type 1 from rat liver membrane by [125I]- A II displacement.
T1 sequence (P29089 whole entry): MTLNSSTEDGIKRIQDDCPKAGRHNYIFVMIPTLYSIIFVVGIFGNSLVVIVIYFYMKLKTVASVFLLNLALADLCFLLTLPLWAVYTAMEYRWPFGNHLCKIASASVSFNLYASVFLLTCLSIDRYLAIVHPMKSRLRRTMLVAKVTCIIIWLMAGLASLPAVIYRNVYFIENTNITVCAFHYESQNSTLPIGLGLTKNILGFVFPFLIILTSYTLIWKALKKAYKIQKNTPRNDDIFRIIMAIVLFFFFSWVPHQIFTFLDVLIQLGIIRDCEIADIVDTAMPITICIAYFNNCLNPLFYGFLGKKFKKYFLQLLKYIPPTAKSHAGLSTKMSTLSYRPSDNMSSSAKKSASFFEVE

[2] = organism: Oryctolagus cuniculus; test: Antagonism of the AII induced contraction of rabbit aortic tissue in a functional assay; conditions: Aorta

Row | Compound | IC50 [1] [nM] | IC50 [2] [nM]
1 | CCCCC1=NC(C)(c2ccccc2)C(=O)N1Cc1ccc(-c2ccccc2C(=O)O)cc1 (centres undefined) | 19 | 130
2 | CCCCC1=NC(C)(C2CCCC2)C(=O)N1Cc1ccc(-c2ccccc2C(=O)O)cc1 (centres undefined) | 3.3 | 9.6
